Reference: the NIST ThermoML archive (doi:10.1016/j.jct.2018.09.002)
Numbers after ± are expanded uncertainties.

Columns and labels:
[1] = Liquid; for vapor or sublimation pressure: Ebulliometric method (Recirculating still); for Normal boiling temperature: Distillation
[2] = refractive index (Na D-line) (dimensionless); details: 101.33 kPa, Liquid, Standard Abbe refractometry

Compound: Cc1cccc(O)c1 [3-methylphenol]
- vapor or sublimation pressure ([1]; 422.25 K): 20 ± 1.5 kPa

Compound: Cc1ccc(O)cc1 [4-methylphenol]
- vapor or sublimation pressure ([1]; 421.95 K): 20 ± 1.5 kPa
- Normal boiling temperature [1]: 201.70 ± 2.2 °C
- refractive index ([2]; 303.15 K): 1.5295 ± 0.0005
- refractive index ([2]; 308.15 K): 1.5288 ± 0.0005

Compound: OCCNCCO [diethanolamine]
- vapor or sublimation pressure ([1]; 489.08 K): 20 ± 1.5 kPa
- Normal boiling temperature [1]: 269.31 ± 2.2 °C
- refractive index ([2]; 298.15 K): 1.4762 ± 0.0005
- refractive index ([2]; 303.15 K): 1.4751 ± 0.0005
